Patent US10272102B2, “Hydroxyalkyl starch for the treatment of hematological neoplasms” (FRESENIUS KABI DEUTSCHLAND GMBH, priority 2013, dated 2019)

Legend:
CCRF-SB = test: Prestoblue fluorescence cell viability assay, CCRF-SB; assay type: cell-based; conditions: CCRF-SB (ALL), 72 h incubation
Experimental: (§1) The objective of this study was to investigate potential effects of hydroxyethyl starch (“HES 130/0.4”) on cell viability of different leukemia cell lines. The 50% inhibition concentration (IC50) was determined in 28 different leukemia cell lines using the commercially available “Prestoblue fluorescence cell viability assay” after incubation with different “HES 130/0.4” concentrations for screening reasons. The concentration range of the tested HES was 100 mg/ml-[…].
(§2) PrestoBlue® reagent is a resazurin-based solution that functions as a cell viability indicator by using the reducing power of living cells to quantitatively measure the proliferation of cells. […] This change can be detected using fluorescence or absorbance measurements (see e.g. Int J Microbiol. 2013; 2013: 420601; published online Apr. 4, 2013 doi: 10.1155/2013/420601 PMCID PMC3638707). […]
(§3) Cells were harvested during the logarithmic growth period and counted using the commercially available cell counting device Countstar. […]
(§4) The test plate was incubated for 72 h in a humidified incubator at 37° C. with 5% CO2, and then measured by means of PrestoBlue assay. […] The plate was then incubated at room temperature for 30 minutes until fluorescence (T0) could be recorded using EnVision Multi Label Reader (Excitation: 540-570 nm/Emission: 580-610 nm). […]

Jurkat = test: Prestoblue fluorescence cell viability assay, Jurkat; assay type: cell-based; conditions: Jurkat (ALL), 72 h incubation
Experimental: as §1, §2, §3, §4

MHH-CALL-2 = test: Prestoblue fluorescence cell viability assay, MHH-CALL-2; assay type: cell-based; conditions: MHH-CALL-2 (ALL), 72 h incubation
Experimental: as §1, §2, §3, §4

Molt-4 = test: Prestoblue fluorescence cell viability assay, Molt-4; assay type: cell-based; conditions: Molt-4 (ALL), 72 h incubation
Experimental: as §1, §2, §3, §4

MUTZ-5 = test: Prestoblue fluorescence cell viability assay, MUTZ-5; assay type: cell-based; conditions: MUTZ-5 (ALL), 72 h incubation
Experimental: as §1, §2, §3, §4

NALM 6 = test: Prestoblue fluorescence cell viability assay, NALM 6; assay type: cell-based; conditions: NALM 6 (ALL), 72 h incubation
Experimental: as §1, §2, §3, §4

PEER IE6 = test: Prestoblue fluorescence cell viability assay, PEER IE6; assay type: cell-based; conditions: PEER IE6 (ALL), 72 h incubation
Experimental: as §1, §2, §3, §4

RS4;11 = test: Prestoblue fluorescence cell viability assay, RS4;11; assay type: cell-based; conditions: RS4;11 (ALL), 72 h incubation
Experimental: as §1, §2, §3, §4

SUP-B15 = test: Prestoblue fluorescence cell viability assay, SUP-B15; assay type: cell-based; conditions: SUP-B15 (ALL), 72 h incubation
Experimental: as §1, §2, §3, §4

HL-60 = test: Prestoblue fluorescence cell viability assay, HL-60; assay type: cell-based; conditions: HL-60 (AML), 72 h incubation
Experimental: as §1, §2, §3, §4

Kasumi-1 = test: Prestoblue fluorescence cell viability assay, Kasumi-1; assay type: cell-based; conditions: Kasumi-1 (AML), 72 h incubation
Experimental: as §1, §2, §3, §4

ML-2 = test: Prestoblue fluorescence cell viability assay, ML-2; assay type: cell-based; conditions: ML-2 (AML), 72 h incubation
Experimental: as §1, §2, §3, §4

MOLM-13 = test: Prestoblue fluorescence cell viability assay, MOLM-13; assay type: cell-based; conditions: MOLM-13 (AML), 72 h incubation
Experimental: as §1, §2, §3, §4

MOLM-16 = test: Prestoblue fluorescence cell viability assay, MOLM-16; assay type: cell-based; conditions: MOLM-16 (AML), 72 h incubation
Experimental: as §1, §2, §3, §4

MV-4-11 = test: Prestoblue fluorescence cell viability assay, MV-4-11; assay type: cell-based; conditions: MV-4-11 (AML), 72 h incubation
Experimental: as §1, §2, §3, §4

NB4 = test: Prestoblue fluorescence cell viability assay, NB4; assay type: cell-based; conditions: NB4 (AML), 72 h incubation
Experimental: as §1, §2, §3, §4

THP-1 = test: Prestoblue fluorescence cell viability assay, THP-1; assay type: cell-based; conditions: THP-1 (AML), 72 h incubation
Experimental: as §1, §2, §3, §4

Reh = test: Prestoblue fluorescence cell viability assay, Reh; assay type: cell-based; conditions: 72 h incubation
Experimental: as §1, §2, §3, §4

TF-1 = test: Prestoblue fluorescence cell viability assay, TF-1; assay type: cell-based; conditions: TF-1 (AML), 72 h incubation
Experimental: as §1, §2, §3, §4

EHEB = test: Prestoblue fluorescence cell viability assay, EHEB; assay type: cell-based; conditions: EHEB (CLL), 72 h incubation
Experimental: as §1, §2, §3, §4

JVM-13 = test: Prestoblue fluorescence cell viability assay, JVM-13; assay type: cell-based; conditions: JVM-13 (CLL), 72 h incubation
Experimental: as §1, §2, §3, §4

JVM-2 = test: Prestoblue fluorescence cell viability assay, JVM-2; assay type: cell-based; conditions: JVM-2 (CLL), 72 h incubation
Experimental: as §1, §2, §3, §4

JVM-3 = test: Prestoblue fluorescence cell viability assay, JVM-3; assay type: cell-based; conditions: JVM-3 (CLL), 72 h incubation
Experimental: as §1, §2, §3, §4

MEC-1 = test: Prestoblue fluorescence cell viability assay, MEC-1; assay type: cell-based; conditions: MEC-1 (CLL), 72 h incubation
Experimental: as §1, §2, §3, §4

MEC-2 = test: Prestoblue fluorescence cell viability assay, MEC-2; assay type: cell-based; conditions: MEC-2 (CLL), 72 h incubation
Experimental: as §1, §2, §3, §4

K-562 = test: Prestoblue fluorescence cell viability assay, K-562; assay type: cell-based; conditions: K-562 (CML), 72 h incubation
Experimental: as §1, §2, §3, §4

KU812 = test: Prestoblue fluorescence cell viability assay, KU812; assay type: cell-based; conditions: KU812 (CML), 72 h incubation
Experimental: as §1, §2, §3, §4

MEG-01 = test: Prestoblue fluorescence cell viability assay, MEG-01; assay type: cell-based; conditions: MEG-01 (CML), 72 h incubation
Experimental: as §1, §2, §3, §4

[1] = test system: human acute myelogeneous leukemia EOL-1 cell line; test: s.c. EOL-1 xenotransplantation model, tumor growth; assay type: in vivo; conditions: EOL-1 tumor-bearing male NOD/SCID mice; 75 mg/kg i.p. single dose (day 0)
Experimental: For calculation of the relative tumor volume (RTV) the tumor volumes at each measurement day were related to the day of first treatment. At each measurement day the median and mean tumor volumes per group and also the treated to control (T/C) values in percent were calculated.

**Q.** Which results are given for `N.N.[Cl][Pt][Cl]` [Cisplatin, cisplatin]?
**A.** IC50 (CCRF-SB): 100 µg/mL; Max-inhibition (CCRF-SB): 100%; IC50 (Jurkat): 200 µg/mL; Max-inhibition (Jurkat): 100%; IC50 (MHH-CALL-2): 140 µg/mL; Max-inhibition (MHH-CALL-2): 100%; IC50 (Molt-4): 150 µg/mL; Max-inhibition (Molt-4): 100%; IC50 (MUTZ-5): 190 µg/mL; Max-inhibition (MUTZ-5): 100%; IC50 (NALM 6): 240 µg/mL; Max-inhibition (NALM 6): 100%; IC50 (PEER IE6): 3730 µg/mL; Max-inhibition (PEER IE6): 100%; IC50 (RS4;11): 50 µg/mL; Max-inhibition (RS4;11): 100%; IC50 (SUP-B15): 450 µg/mL; Max-inhibition (SUP-B15): 100%; IC50 (HL-60): 450 µg/mL; Max-inhibition (HL-60): 100%; IC50 (Kasumi-1): 780 µg/mL; Max-inhibition (Kasumi-1): 100%; IC50 (ML-2): 350 µg/mL; Max-inhibition (ML-2): 100%; IC50 (MOLM-13): 340 µg/mL; Max-inhibition (MOLM-13): 100%; IC50 (MOLM-16): 650 µg/mL; Max-inhibition (MOLM-16): 100%; IC50 (MV-4-11): 160 µg/mL; Max-inhibition (MV-4-11): 100%; IC50 (NB4): 140 µg/mL; Max-inhibition (NB4): 100%; IC50 (THP-1): 640 µg/mL; Max-inhibition (THP-1): 100%; Max-inhibition (Reh; Reh (AML)): 100%; IC50 (Reh; Reh (B-ALL)): 170 µg/mL; IC50 (TF-1): 1720 µg/mL; Max-inhibition (TF-1): 100%; IC50 (EHEB): 490 µg/mL; Max-inhibition (EHEB): 100%; IC50 (JVM-13): 180 µg/mL; Max-inhibition (JVM-13): 100%; IC50 (JVM-2): 180 µg/mL; Max-inhibition (JVM-2): 100%; IC50 (JVM-3): 270 µg/mL; Max-inhibition (JVM-3): 100%; IC50 (MEC-1): 1150 µg/mL; Max-inhibition (MEC-1): 100%; IC50 (MEC-2): 1670 µg/mL; Max-inhibition (MEC-2): 100%; IC50 (K-562): 1290 µg/mL; Max-inhibition (K-562): 100%; IC50 (KU812): 250 µg/mL; Max-inhibition (KU812): 100%; IC50 (MEG-01): 830 µg/mL; Max-inhibition (MEG-01): 100%

**Q.** With `O=P1(N(CCCl)CCCl)NCCCO1` (stereo not drawn) [Cyclophosphamide] as the molecule, how does the “inhibition of tumor growth” value [1] read?
**A.** significant inhibition
